Results published in patent US20250304587A1, “WEE1 INHIBITOR, PREPARATION THEREFOR AND USE THEREOF” (JIANGSU TASLY DIYI PHARMACEUTICAL CO., LTD., priority 2022, published 2025).
Where two headings read alike, the source gives them in different places.

Assays:
hERG potassium channel = hERG potassium channel (Homo sapiens (Human), UniProt Q12809); test: hERG potassium channel inhibition, patch clamp in CHO hERG cells
plasma protein [1] = test: Plasma protein binding (equilibrium dialysis), mouse; details: mouse plasma, 1 μM, 5 h dialysis
Description: (§5) Sample preparation: The compound was dissolved in DMSO to a stock solution of 10 mM, then the compound was diluted with PBS to a secondary stock solution of 0.02 mM, and then the above 0.02 mM was diluted to 1 μM using blank plasma, which was the sample to be incubated.
(§6) Dialysis set-up preparation: 400 μL of blank PBS was first added to the white wells of the equilibrated dialysis plate and 200 μL of the configured plasma sample was added to the red wells, and the dialysis plate was sealed with a sealing film.
(§7) Recovery plate preparation: Two 96-well deep-well plates, labelled T0 and T5, were prepared and all plasma samples were added at n=2. 300 μL of acetonitrile (Verapamil-HCl, 4 ng/mL) was added directly to the TO plate, followed by 50 μL of blank PBS mix well for 5 min and left to stand in a 4° C. refrigerator until the end of the incubation.
(§8) Experimental Operation: The dialysis device and the T5 plate were incubated together for 5 h in a microplate thermostatic shaker (37° C., using 300 rpm or minimum speed). At the end of the incubation, 300 μL of acetonitrile (Verapamil-HCl, 4 ng/mL) was added and 50 μL of PBS solution was added. At the end of the dialysis incubation, a new 96-well deep well plate was taken. Add 50 μL of plasma well sample to the corresponding position of the 96-well plate, 300 μL of acetonitrile and 50 μL of blank PBS; take 50 μL of buffer well sample to the corresponding position of the 96-well plate, then add 300 μL of acetonitrile and 50 μL of blank plasma. Add 300 μL of acetonitrile (Verapamil-HCl, 4 ng/mL) to the plasma-containing wells of the T5 plate, and then 50 μL of PBS solution was added. Shake for 5 min to fully precipitate the proteins and centrifuge at 20,000 g for 10 min at 4° C. Add 200 μL of supernatant to 200 μL of pure water, mix well and perform LC-MS/MS analysis.
(§9) • Plasma protein binding rate=[(Rpe−Rb)/Rpe]×100% • Recovery=[(Rpe+Rb)/R5 h]×100% • Stability=(R5/R0)×100%
(§10) • Rpe=ratio of plasma-side testing sample peak area to internal standard • Rb=ratio of buffer side testing sample peak area to internal standard • R5=ratio of incubator stability sample peak area to internal standard • R0=ratio of refrigerator stability sample peak area to internal standard

Caco-2 cells = test: Membrane permeability in Caco-2 model; assay type: in vitro ADME
Method in brief: (§1)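 Caco-2 monolayers grown 21-28 days post-seeding, integrity checked by Lucifer Yellow Papp. Apical and basolateral compound levels measured by LC-MS/MS against a standard curve to derive apparent permeability (Papp).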

[2] = Single dose toxicity in rats, maximum tolerated dose
plasma protein [3] = test: Plasma protein binding (equilibrium dialysis), human; assay type: in vitro ADME; details: 1 μM, 5 h dialysis
HK2 cells = test: Cell Titer-Glo anti-proliferation, normal cells HK2; assay type: cell-based; details: Homo sapiens, HK-2
Method in brief: (§2)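 Cells were exposed to serial compound concentrations (0.2% DMSO final) for 3 days at 37 °C, 5% CO2, then lysed with Cell Titer-Glo and read by luminescence. Inhibition was referenced to untreated-cell and medium-only controls, and IC50 came from a four-parameter variable-slope log(inhibitor)–response fit.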

BxPC3 cells = test: Cell Titer-Glo anti-proliferation, BxPC3 cells; assay type: cell-based, human; details: Homo sapiens, BXPC-3, 72 h, 3 days, read-out: Anti-proliferative activity BxPC3 (IC50 class)
Method in brief: (§3)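 Each line was exposed to graded compound concentrations for 3 days at 37 °C, 5% CO2, with final DMSO at 0.2%. Viability was measured by Cell Titer-Glo luminescence, with untreated cells as the maximum and medium as the minimum signal. IC50 came from a variable-slope log(inhibitor)-response fit.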

CYP 2B6 = CYP 2B6 (Homo sapiens (Human), UniProt P20813); test: Cytochrome P450 inhibition, CYP2B6; assay type: in vitro ADME
Description: (§4) Enzymatic experiments were performed to quantify the inhibition of CYP450 enzyme activity of each isoform of CYP450 by small molecule inhibitors through fluorescence generated by the oxidation of the substrate by cytochrome P450. […] The Solution B composition used for the experiment was: 40 U/mL G6PDH (Sigma-aldrich, Cat #G6378). The substrate mix was 0.05× Solution A, 0.01× Solution B, 50 mM Potassium Phosphate, 0.01 mM BOMCC/0.01 mM EOMCC/0.001 mM DBOMF. […] The data were analyzed and processed using GraphPad Prism 6 software to obtain IC50 values.

[4] = SD, rat, in vivo, 14 days
HT-29 cells = test: Cell Titer-Glo anti-proliferation, HT-29 cells; assay type: cell-based, human; details: Homo sapiens, HT-29, 72 h, 3 days, read-out: Anti-proliferative activity HT-29 (IC50 class)
Method in brief: as §3

[5] = Plasma protein binding (equilibrium dialysis), mouse; details: mouse, plasma
Description: as §5, §6, §7, §8, §9, §10

CYP2C9 = CYP2C9 (Homo sapiens (Human), UniProt P11712); test: Cytochrome P450 inhibition (fluorescence), CYP2C9; assay type: in vitro ADME; details: read-out: IC50 CYP2C9
Description: as §4

[6] = Membrane permeability in Caco-2 model; assay type: in vitro ADME; details: human, Caco-2, pH 7.4; Caco2, 10 μM, 90 min
Method in brief: as §1

CYP2D6 = CYP2D6 (Homo sapiens (Human), UniProt P10635); test: Cytochrome P450 inhibition (fluorescence), CYP2D6; assay type: in vitro ADME; details: read-out: IC50 CYP2D6
Description: as §4

HUVEC cells = test: Cell Titer-Glo anti-proliferation, normal cells HUVEC; assay type: cell-based; details: Homo sapiens, HUVEC
Method in brief: as §2

CYP2C8 = CYP2C8 (Homo sapiens (Human), UniProt P10632); test: Cytochrome P450 inhibition (fluorescence), CYP2C8; assay type: in vitro ADME; details: read-out: IC50 CYP2C8
Description: as §4

OVCAR-3 cells = test: Cell Titer-Glo anti-proliferation, OVCAR-3 cells; assay type: cell-based; details: Homo sapiens, OVCAR-3, 72 h, 3 days, read-out: Anti-proliferative activity OVCAR-3 (IC50 class)
Method in brief: as §3

[7] = Plasma protein binding (equilibrium dialysis), human; assay type: in vitro ADME; details: 5 h dialysis, read-out: Plasma Protein binding (PPB) Human (converted)
[8] = female rats, 200 mg/kg by gavage
[9] = female rats, 300 mg/kg by gavage
[10] = female rats, 400 mg/kg by gavage
[11] = female rats, 500 mg/kg by gavage

Sequence of hERG potassium channel (Q12809 whole entry): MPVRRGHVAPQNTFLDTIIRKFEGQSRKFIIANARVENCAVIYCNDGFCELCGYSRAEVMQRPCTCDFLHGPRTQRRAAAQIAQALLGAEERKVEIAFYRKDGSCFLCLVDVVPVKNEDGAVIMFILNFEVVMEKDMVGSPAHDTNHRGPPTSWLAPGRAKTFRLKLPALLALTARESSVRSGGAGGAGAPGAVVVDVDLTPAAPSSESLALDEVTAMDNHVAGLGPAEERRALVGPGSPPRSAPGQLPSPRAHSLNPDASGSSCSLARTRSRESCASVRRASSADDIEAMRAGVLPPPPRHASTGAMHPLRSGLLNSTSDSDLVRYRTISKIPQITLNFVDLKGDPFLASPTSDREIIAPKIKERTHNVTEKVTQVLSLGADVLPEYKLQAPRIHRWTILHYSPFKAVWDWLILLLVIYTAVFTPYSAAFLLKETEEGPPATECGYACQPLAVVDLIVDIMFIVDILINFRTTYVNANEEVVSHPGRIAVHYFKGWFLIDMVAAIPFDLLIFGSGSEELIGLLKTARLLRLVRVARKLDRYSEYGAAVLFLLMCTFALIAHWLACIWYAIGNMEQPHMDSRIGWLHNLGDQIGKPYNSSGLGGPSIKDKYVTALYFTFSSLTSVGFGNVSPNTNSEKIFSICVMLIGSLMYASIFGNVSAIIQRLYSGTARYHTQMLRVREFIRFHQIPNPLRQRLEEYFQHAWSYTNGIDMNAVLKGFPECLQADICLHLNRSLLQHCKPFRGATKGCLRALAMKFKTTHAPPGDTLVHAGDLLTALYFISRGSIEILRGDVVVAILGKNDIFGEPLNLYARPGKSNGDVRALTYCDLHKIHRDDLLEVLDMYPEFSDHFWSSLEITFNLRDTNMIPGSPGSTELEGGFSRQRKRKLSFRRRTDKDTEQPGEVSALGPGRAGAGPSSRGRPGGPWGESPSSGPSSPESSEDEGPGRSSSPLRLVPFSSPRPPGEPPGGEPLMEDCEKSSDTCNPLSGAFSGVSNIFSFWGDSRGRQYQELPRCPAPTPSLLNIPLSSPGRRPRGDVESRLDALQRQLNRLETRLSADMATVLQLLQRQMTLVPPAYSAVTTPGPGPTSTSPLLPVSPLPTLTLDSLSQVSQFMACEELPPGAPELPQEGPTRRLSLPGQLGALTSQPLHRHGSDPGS
Sequence of CYP2C9 (P11712 whole entry): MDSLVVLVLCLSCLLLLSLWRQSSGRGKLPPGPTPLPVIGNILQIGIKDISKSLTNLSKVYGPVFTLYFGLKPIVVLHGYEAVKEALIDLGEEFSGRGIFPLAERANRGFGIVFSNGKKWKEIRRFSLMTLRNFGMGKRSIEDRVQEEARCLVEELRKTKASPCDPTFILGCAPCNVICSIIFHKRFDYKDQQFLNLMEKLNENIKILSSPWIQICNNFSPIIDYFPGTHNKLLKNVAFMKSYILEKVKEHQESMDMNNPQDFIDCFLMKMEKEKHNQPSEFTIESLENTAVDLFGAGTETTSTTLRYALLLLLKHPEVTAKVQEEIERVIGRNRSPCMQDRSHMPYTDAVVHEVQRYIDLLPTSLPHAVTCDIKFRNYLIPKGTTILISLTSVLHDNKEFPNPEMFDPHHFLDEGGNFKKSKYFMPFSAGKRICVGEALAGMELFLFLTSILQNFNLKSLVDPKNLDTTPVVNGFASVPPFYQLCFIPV
Sequence of CYP2D6 (P10635 whole entry): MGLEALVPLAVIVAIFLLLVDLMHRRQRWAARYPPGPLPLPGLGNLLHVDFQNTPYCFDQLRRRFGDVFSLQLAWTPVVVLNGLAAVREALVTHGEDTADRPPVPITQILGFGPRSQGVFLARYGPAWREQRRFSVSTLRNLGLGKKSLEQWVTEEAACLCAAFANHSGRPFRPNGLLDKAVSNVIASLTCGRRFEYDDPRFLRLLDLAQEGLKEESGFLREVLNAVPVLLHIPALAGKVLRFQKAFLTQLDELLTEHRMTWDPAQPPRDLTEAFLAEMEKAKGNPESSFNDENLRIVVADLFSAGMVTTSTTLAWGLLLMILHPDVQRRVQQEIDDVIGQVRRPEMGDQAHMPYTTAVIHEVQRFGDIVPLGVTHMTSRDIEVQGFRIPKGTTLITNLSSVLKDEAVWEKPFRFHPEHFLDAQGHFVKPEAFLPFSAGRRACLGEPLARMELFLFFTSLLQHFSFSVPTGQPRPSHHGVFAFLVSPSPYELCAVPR
Sequence of CYP 2B6 (P20813 whole entry, canonical isoform): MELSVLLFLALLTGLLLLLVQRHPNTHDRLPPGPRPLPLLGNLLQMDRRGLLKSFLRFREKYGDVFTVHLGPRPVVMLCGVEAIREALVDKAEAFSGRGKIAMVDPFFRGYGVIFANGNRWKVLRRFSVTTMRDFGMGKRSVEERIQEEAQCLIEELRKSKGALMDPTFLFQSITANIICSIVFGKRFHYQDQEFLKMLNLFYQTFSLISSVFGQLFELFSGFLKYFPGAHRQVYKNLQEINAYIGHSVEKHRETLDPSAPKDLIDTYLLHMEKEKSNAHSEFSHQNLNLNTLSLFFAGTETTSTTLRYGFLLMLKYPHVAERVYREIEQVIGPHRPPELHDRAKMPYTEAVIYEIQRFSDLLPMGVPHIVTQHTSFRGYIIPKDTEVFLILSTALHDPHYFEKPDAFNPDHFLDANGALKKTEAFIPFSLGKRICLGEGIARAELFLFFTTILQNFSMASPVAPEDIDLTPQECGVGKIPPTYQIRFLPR
Sequence of CYP2C8 (P10632 whole entry): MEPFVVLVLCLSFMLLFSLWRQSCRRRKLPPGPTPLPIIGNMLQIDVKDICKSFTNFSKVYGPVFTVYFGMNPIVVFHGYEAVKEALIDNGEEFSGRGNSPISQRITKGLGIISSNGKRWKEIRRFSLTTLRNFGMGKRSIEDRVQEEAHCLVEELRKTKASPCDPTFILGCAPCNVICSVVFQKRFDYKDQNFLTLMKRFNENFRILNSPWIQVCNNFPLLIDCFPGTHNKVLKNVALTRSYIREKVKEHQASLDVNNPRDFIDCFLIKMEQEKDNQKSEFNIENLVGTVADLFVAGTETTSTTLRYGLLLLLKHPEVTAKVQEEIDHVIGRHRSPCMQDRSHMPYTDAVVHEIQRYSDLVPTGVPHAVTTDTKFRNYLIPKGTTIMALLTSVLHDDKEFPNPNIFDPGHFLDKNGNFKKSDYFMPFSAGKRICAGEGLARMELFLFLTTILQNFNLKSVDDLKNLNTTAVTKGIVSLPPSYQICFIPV

## [2H][C@]1(O)c2nc(-n3c4nc(Nc5ccc(N6CCC7(CCN(C)CC7)CC6)cc5)ncc4c(=O)n3CC=C)ccc2CCC12CC2 [Compound 37b]
hERG potassium channel; test concentration 5 μM
  hERG Inhibition: 18.00 ± 4.80%
hERG potassium channel; test concentration 20 μM
  hERG Inhibition: 34.70 ± 4.40%
Plasma protein [1]
  Plasma Protein binding (PPB) Mouse: 92.46%
Caco-2 cells; Caco2
  Efflux Ration: 21.06
Caco-2 cells; Caco2, 10 μM, 90 min
  Papp A to B: 0.46 10^−6 cm/s
  Papp B to A: 9.69 10^−6 cm/s
[2]; [8]
  Death Numbers: 0
  Death Rate: 0%
[2]; [9]
  Death Numbers: 0
  Death Rate: 0%
[2]; [10]
  Death Numbers: 3
  Death Rate: 60%
[2]; [11]
  Death Numbers: 2
  Death Rate: 67%
[2]; male rats, 200 mg/kg by gavage
  Death Numbers: 0
  Death Rate: 0%
[2]; male rats, 300 mg/kg by gavage
  Death Numbers: 0
  Death Rate: 0%
[2]; male rats, 400 mg/kg by gavage
  Death Numbers: 2
  Death Rate: 40%
[2]; male rats, 500 mg/kg by gavage
  Death Numbers: 2
  Death Rate: 40%
Plasma protein [3]
  Plasma Protein binding (PPB) Human: 77.58%

## C=CCn1c(=O)c2cnc(Nc3ccc(N4CCN(C)CC4)cc3)nc2n1-c1cccc(C(C)(C)O)n1 [AZD1775, reference compound]
HK2 cells
  IC50: 260 nM
BxPC3 cells
  IC50: 100 to 1000 nM
CYP 2B6
  IC50: > 10 µM
[4]; female, 25 mg/kg
  Survival of Rats: 7/7
[4]; female, 75 mg/kg
  Survival of Rats: 0/7
[4]; male, 25 mg/kg
  Survival of Rats: 7/7
[4]; male, 75 mg/kg
  Survival of Rats: 1/7
HT-29 cells
  IC50: 100 to 1000 nM
[5]
  fraction unbound at 5 h, 1 µM: 0.087
CYP2C9
  IC50: > 10 µM
[6]
  Papp A→B at 90 min, 10 µM: 0.8 ×10⁻⁶ cm/s
  Papp B→A at 90 min, 10 µM: 15.2 ×10⁻⁶ cm/s
CYP2D6
  IC50: > 10 µM
HUVEC cells
  IC50: > 10 µM
CYP2C8
  IC50: > 10 µM
OVCAR-3 cells
  IC50: 100 to 1000 nM
[7]
  fraction unbound at 5 h, 1 µM: 0.336
